{"source": "patent US20260345593A1", "about": "“ORAL FORMULATION OF N-PYRIDINYL ACETAMIDE DERIVATIVE FOR TREATING INTERSTITIAL LUNG DISEASE” (AstraZeneca AB, priority 2022, published 2026)", "origin": "cited, not measured here", "key": {"[1]": {"tested_on": "patients with IPF", "conditions": "cited from earlier work; for rate of decline in lung function: patients with IPF (King 2014 and Richeldi 2014); for GI side effects / tolerability in IPF patients: patients with IPF"}, "[2]": {"tested_on": "ILD patients with SSc-ILD", "conditions": "SSc-ILD (Khanna 2020); cited from earlier work"}, "[3]": {"tested_on": "Axin2 expression levels in skin samples from subjects with advanced cancers", "conditions": "10 mg once daily, cited from earlier work"}, "[4]": {"conditions": "20 mg BID, preclinical and clinical studies; cited from earlier work"}, "[5]": {"tested_on": "pH elevation", "conditions": "20 mg BID oral pre-treatment; cited from earlier work"}, "[6]": {"tested_on": "patients with ILD-PF other than IPF", "conditions": "ILD-PF other than IPF (Wells 2020); cited from earlier work"}}, "data": [{"compound": "Cc1ccc(=O)n(-c2ccccc2)c1", "note": "[pirfenidone]", "values": [{"measurement": "rate of decline in lung function", "setting": "[1]", "result": "slow the rate of decline in lung function"}, {"measurement": "GI side effects", "setting": "[1]", "result": "troublesome GI side effects"}, {"measurement": "tolerability in IPF patients", "setting": "[1]", "result": "many patients with IPF are not able to tolerate these medications"}]}, {"compound": "Tocilizumab: a monoclonal antibody directed against the IL-6 receptor", "values": [{"measurement": "progression of lung disease", "setting": "[2]", "result": "slow progression of lung disease"}]}, {"compound": "Cc1cc(-c2ncc(CC(=O)Nc3ccc(-c4cnccn4)cn3)cc2C)ccn1", "note": "[Wnt974]", "values": [{"measurement": "reduction in Axin2 expression levels in skin samples", "setting": "[3]; subjects with advanced cancers (Rodon 2021)", "result": "approximately 90%"}, {"measurement": "average Ctrough at steady state", "setting": "[3]; subjects with advanced cancers", "result": 3.7, "unit": "×IC50"}]}, {"compound": "COCCCOc1ccnc(C[S+]([O-])c2nc3ccccc3[nH]2)c1C", "note": "(racemic) [rabeprazole, (RS)-2-([4-(3-methoxypropoxy)-3-methylpyridin-2-yl]methylsulfinyl)-1H-benzo[d]imidazole]", "values": [{"measurement": "safety concerns", "setting": "[4]", "result": "not raised any notable safety concerns"}, {"measurement": "time to PD steady state of pH elevation", "setting": "[5]", "result": 3, "unit": "days"}]}, {"compound": "COC(=O)c1ccc2c(c1)NC(=O)/C2=C(\\Nc1ccc(N(C)C(=O)CN2CCN(C)CC2)cc1)c1ccccc1", "note": "[nintedanib, methyl (3Z)-3-{[(4-{methyl[(4-methylpiperazin-1-yl)acetyl]amino}phenyl)amino](phenyl)methylidene}-2-oxo-2,3-dihydro-1H-indole-6-carboxylate]", "values": [{"measurement": "rate of decline in lung function", "setting": "[1]", "result": "slow the rate of decline in lung function"}, {"measurement": "GI side effects", "setting": "[1]", "result": "troublesome GI side effects"}, {"measurement": "tolerability in IPF patients", "setting": "[1]", "result": "many patients with IPF are not able to tolerate these medications"}, {"measurement": "rate of decline in lung function", "setting": "[6]", "result": "slow the rate of decline in lung function in these patients"}]}]}
